Reference: EP2774915A1, “New derivatives of resveratrol” (Mattarei, Andrea, priority 2013, dated 2014)
Where two headings read alike, the source gives them in different places.

Assays:
[1] = pH 5
Description: (§1) Solubility in aqueous media. A calibration curve is constructed via HPLC analysis of a series of solutions of the compound of interest at known concentrations in a suitable solvent. A known amount (excess) of solid compound is placed in a 20-mL vial to which a 5 mL aliquot of 1 mM acetate buffer at pH 5 is then added. The contents are stirred at 25°C for 24 hours. After a 4-hour decantation period, 1 mL of the supernatant is filtered through a PTFE 0.45 µm filter, diluted with 2 v/v of acetonitrile and analyzed by HPLC. The entire procedure is repeated twice with the same sample, at 24-hour intervals, to verify the invariance of the result.

[2] = Solubility in aqueous media (excess solid stirred in buffer, HPLC of filtered supernatant); conditions: 1 mM acetate buffer at pH 5, 25°C, 24 hours stirring
Description: as §1

[3] = Stability to oxidation: reaction with DPPH radical, absorbance at 520 nm; assay type: physicochemical; conditions: 20 nmoles of DPPH in methanol, absorbance at 520 nm after 40 min (Fig. 5)
Description: At time zero, 20 nmoles of DPPH and the specified amount of resveratrol or of its derivative were mixed in methanol. Absorbance was measured after 40 min.
The susceptibility to oxidation can be assessed by studying c) the reaction with the 1,1-diphenyl-2-picrylhydrazyl (DPPH) radical.
DPPH is a stable free radical with an absorbance maximum at 520 nm (purple). Upon reaction with polyphenols it is converted to DPPHH (yellow) and this change of colour is an indication of the extent of the reaction which has taken place. The assays were conducted using 96-well plates following Fukumoto and Mazza (2000), measuring absorbance with a Tecan Infinite 200 plate reader.

| Solubility in water [1] | Structure (SMILES) | reaction with DPPH [3] | other results |
| --- | --- | --- | --- |
| below detection limit | O=C(NC(Cc1ccccc1)C(=O)O)Oc1ccc(C=Cc2cc(OC(=O)NC(Cc3ccccc3)C(=O)O)cc(OC(=O)NC(Cc3ccccc3)C(=O)O)c2)cc1 (centres unmarked) [Resv(HOPhe-C)3, 3,4',5-tri-[N-(phenylalanyl)-carbamoyl]-resveratrol] | – | – |
| below detection limit | CCCCCCCCC=CCCCCCCCCNC(=O)Oc1ccc(C=Cc2cc(OC(=O)NCCCCCCCCC=CCCCCCCCC)cc(OC(=O)NCCCCCCCCC=CCCCCCCCC)c2)cc1 [Resv(Oleyl-C)3, 3,4',5-tri-[N-(octadec-9-enyl)-carbamoyl]-resveratrol] | – | – |

The next lines start with the compound.

| Structure (SMILES) | Solubility in water [1] | reaction with DPPH [3] | other results |
| --- | --- | --- | --- |
| CNC(=O)Oc1ccc(C=Cc2cc(OC(=O)NC)cc(OC(=O)NC)c2)cc1 [Resv(Me-C)3, 3,4',5-tri-[N-methyl-carbamoyl]-resveratrol] | – | – | Solubility in water [2]: below detection limit |
| COCCOCCOCCNC(=O)Oc1ccc(C=Cc2cc(OC(=O)NCCOCCOCCOC)cc(OC(=O)NCCOCCOCCOC)c2)cc1 [Resv(TGME-C)3, 3,4',5-tri-[N-methoxytri-(ethyleneglycol)-carbamoyl] resveratrol] | – | does not react at all with DPPH | – |
| Oc1ccc(C=Cc2cc(O)cc(O)c2)cc1 [resveratrol] | – | stoichiometric oxidation | – |
